According to patent US10570129B2 (Zoetis Services LLC, priority 2015, dated 2020):

Experiments:
Haemonchus contortus L3 = assay: microbe, parasite or virus in culture; type: cell-based; conditions: Haemonchus contortus, 96 h, read-out: HcL3 Minimal Effective Concentration (MEC)
D. immitis microfilariae = assay: Dirofilaria immitis, microfilariae (DiMF) in vitro motility assay; type: cell-based; conditions: Dirofilaria immitis, 72 h, read-out: DiMF minimally effective dose (MEC)

Structure (SMILES) | minimal effective concentration (Haemonchus contortus L3) | minimal effective concentration (D. immitis microfilariae)
O=C(NCc1ccnc(Cl)c1)n1c2c(c3cc(F)ccc31)CN(C/C=C/c1ccc(Cl)cc1)CC2 [Example 169, (E)-2-(3-(4-chlorophenyl)allyl)-N-((2-chloropyridin-4-yl)methyl)-8-fluoro-1,2,3,4-tetrahydro-5H-pyrido[4,3-b]indole-5-carboxamide] | 0.1 µM | 18.2 µM
O=C(NCc1ccnc(Cl)c1)n1c2c(c3cc(Br)ccc31)CN(C/C=C/c1ccc(Cl)c(F)c1)CC2 [Example 179, (E)-8-bromo-2-(3-(4-chloro-3-fluorophenyl)allyl)-N-((2-chloropyridin-4-yl)methyl)-1,2,3,4-tetrahydro-5H-pyrido[4,3-b]indole-5-carboxamide] | 0.5 µM | 75.8 µM
COc1cc2c(cc1Br)c1c(n2C(=O)NCc2ccnc(Cl)c2)CCN(C/C=C/c2ccc(Cl)cc2)C1 [Example 195, (E)-8-bromo-2-(3-(4-chlorophenyl)allyl)-N-((2-chloropyridin-4-yl)methyl)-7-methoxy-1,2,3,4-tetrahydro-5H-pyrido[4,3-b]indole-5-carboxamide] | 0.5 µM | 5.7 µM
N#Cc1ccc2c(c1)c1c(n2C(=O)NCc2ccnc(Cl)c2)CCN(C/C=C/c2cc(F)c(Cl)c(F)c2)C1 [Example 71, (E)-2-(3-(4-chloro-3,5-difluorophenyl)allyl)-N-((2-chloropyridin-4-yl)methyl)-8-cyano-1,2,3,4-tetrahydro-5H-pyrido[4,3-b]indole-5-carboxamide] | 0.2 µM | > 100 µM
Cc1ccc2c(c1)c1c(n2C(=O)NCc2ccnc(Cl)c2)CCN(C/C=C/c2ccc(Cl)c(Cl)c2)C1 [Example 432, (E)-N-((2-chloropyridin-4-yl)methyl)-2-(3-(3,4-dichlorophenyl)allyl)-8-methyl-1,2,3,4-tetrahydro-5H-pyrido[4,3-b]indole-5-carboxamide] | 1 µM | 57.4 µM
Cc1cc2c(cc1OC(F)(F)F)c1c(n2C(=O)NCc2ccnc(Cl)c2)CCN(C/C=C/c2ccc(Cl)cc2)C1 [Example 494, (E)-2-(3-(4-chlorophenyl)allyl)-N-((2-chloropyridin-4-yl)methyl)-7-methyl-8-(trifluoromethoxy)-1,2,3,4-tetrahydro-5H-pyrido[4,3-b]indole-5-carboxamide] | 1 µM | > 100 µM
O=C(NCc1ccnc(Cl)c1)n1c2c(c3cccc(Cl)c31)CN(C/C=C/c1ccc(F)cc1)CC2 [Example 269, (E)-6-chloro-N-((2-chloropyridin-4-yl)methyl)-2-(3-(4-fluorophenyl)allyl)-1,2,3,4-tetrahydro-5H-pyrido[4,3-b]indole-5-carboxamide] | > 100 µM | 3.3 µM
O=C(NCc1ccnc(F)c1)n1c2c(c3cc(F)c(Cl)cc31)CN(C/C=C/c1cc(F)cc(F)c1)CC2 [Example 316, (E)-7-chloro-2-(3-(3,5-difluorophenyl)allyl)-8-fluoro-N-((2-fluoropyridin-4-yl)methyl)-1,2,3,4-tetrahydro-5H-pyrido[4,3-b]indole-5-carboxamide] | > 100 µM | 5.7 µM
CCOc1cc2c(cc1Br)c1c(n2C(=O)NCc2ccnc(Cl)c2)CCN(C/C=C/c2ccc(Cl)cc2)C1 [Example 468, (E)-8-bromo-2-(3-(4-chlorophenyl)allyl)-N-((2-chloropyridin-4-yl)methyl)-7-ethoxy-1,2,3,4-tetrahydro-5H-pyrido[4,3-b]indole-5-carboxamide] | 0.2 µM | 1.8 µM
O=C(NCc1ccnc(F)c1)n1c2c(c3cc(Br)ccc31)CN(C/C=C/c1ccc(F)c(Cl)c1)CC2 [Example 190, (E)-8-bromo-2-(3-(3-chloro-4-fluorophenyl)allyl)-N-((2-fluoropyridin-4-yl)methyl)-1,2,3,4-tetrahydro-5H-pyrido[4,3-b]indole-5-carboxamide] | 1 µM | 5.7 µM
Cc1cccc2c1c1c(n2C(=O)NCc2ccnc(Cl)c2)CCN(C/C=C/c2ccc(Cl)cc2)C1 [Example 147, (E)-2-(3-(4-chlorophenyl)allyl)-N-((2-chloropyridin-4-yl)methyl)-9-methyl-1,2,3,4-tetrahydro-5H-pyrido[4,3-b]indole-5-carboxamide] | 2.8 µM | 10 µM
O=C(NCc1ccnc(Cl)c1)n1c2c(c3cccc(Cl)c31)CN(C/C=C/c1ccc(C(F)(F)F)cn1)CC2 [Example 266, (E)-6-chloro-N-((2-chloropyridin-4-yl)methyl)-2-(3-(5-(trifluoromethyl)-pyridin-2-yl)allyl)-1,2,3,4-tetrahydro-5H-pyrido[4,3-b]indole-5-carboxamide] | > 100 µM | 18.2 µM
N#Cc1ccc2c(c1)c1c(n2C(=O)NCc2ccnc(F)c2)CCN(C/C=C/c2ccc(Cl)cc2Cl)C1 [Example 101, (E)-8-cyano-2-(3-(2,4-dichlorophenyl)allyl)-N-((2-fluoropyridin-4-yl)methyl)-1,2,3,4-tetrahydro-5H-pyrido[4,3-b]indole-5-carboxamide] | 0.2 µM | 24 µM
N#Cc1ccc2c(c1)c1c(n2C(=O)NCc2ccnc(Cl)c2)CCN(C/C=C/c2ccc(F)c(F)c2F)C1 [Example 80, (E)-N-((2-chloropyridin-4-yl)methyl)-8-cyano-2-(3-(2,3,4-trifluorophenyl)allyl)-1,2,3,4-tetrahydro-5H-pyrido[4,3-b]indole-5-carboxamide] | 0.06 µM | > 100 µM
O=C(NCc1ccnc(Cl)c1)n1c2c(c3cc4c(cc31)COC4)CN(C/C=C/c1ccc(C(F)(F)F)cc1)CC2 [Example 482, (E)-N-((2-chloropyridin-4-yl)methyl)-8-(3-(4-(trifluoromethyl)phenyl)allyl)-1,3,6,7,8,9-hexahydro-5H-furo[3,4-f]pyrido[4,3-b]indole-5-carboxamide] | 1.8 µM | 3.3 µM
O=C(NCc1ccnc(F)c1)n1c2c(c3cc(-c4ccc(F)cc4)ccc31)CN(C/C=C/c1ccc(Cl)cc1)CC2 [Example 463, (E)-2-(3-(4-chlorophenyl)allyl)-8-(4-fluorophenyl)-N-((2-fluoropyridin-4-yl)methyl)-1,2,3,4-tetrahydro-5H-pyrido[4,3-b]indole-5-carboxamide] | > 100 µM | > 100 µM
COc1ccc(/C=C/CN2CCc3c(c4ccc(Cl)cc4n3C(=O)NCc3ccnc(Cl)c3)C2)cc1 [Example 219, (E)-7-chloro-N-((2-chloropyridin-4-yl)methyl)-2-(3-(4-methoxyphenyl)allyl)-1,2,3,4-tetrahydro-5H-pyrido[4,3-b]indole-5-carboxamide] | 0.5 µM | 3.3 µM
N#Cc1ccc(/C=C/CN2CCc3c(c4cc(C#N)ccc4n3C(=O)NCc3ccnc(Cl)c3)C2)cc1 [Example 91, (E)-N-((2-chloropyridin-4-yl)methyl)-8-cyano-2-(3-(4-cyanophenyl)allyl)-1,2,3,4-tetrahydro-5H-pyrido[4,3-b]indole-5-carboxamide] | 0.4 µM | 13.5 µM
CSc1ccc2c(c1)c1c(n2C(=O)NCc2ccnc(Cl)c2)CCN(C/C=C/c2ccc(Cl)cc2)C1 [Example 447, (E)-2-(3-(4-chlorophenyl)allyl)-N-((2-chloropyridin-4-yl)methyl)-8-(methylthio)-1,2,3,4-tetrahydro-5H-pyrido[4,3-b]indole-5-carboxamide] | 0.5 µM | 3.3 µM
O=C(NCc1ccnc(Cl)c1)n1c2c(c3ccc(Br)cc31)CN(C/C=C/c1ccc(Cl)c(F)c1)CC2 [Example 437, (E)-7-bromo-2-(3-(4-chloro-3-fluorophenyl)allyl)-N-((2-chloropyridin-4-yl)methyl)-1,2,3,4-tetrahydro-5H-pyrido[4,3-b]indole-5-carboxamide] | 1 µM | 10 µM
O=C(NCc1ccnc(Cl)c1)n1c2c(c3ccc(OC(F)(F)F)cc31)CN(C/C=C/c1ccc(Br)cc1F)CC2 [Example 338, (E)-2-(3-(4-bromo-2-fluorophenyl)allyl)-N-((2-chloropyridin-4-yl)methyl)-7-(trifluoromethoxy)-1,2,3,4-tetrahydro-5H-pyrido[4,3-b]indole-5-carboxamide] | 0.3 µM | 10 µM
N#Cc1ccc(/C=C/CN2CCc3c(c4c(OC(F)(F)F)cccc4n3C(=O)NCc3ccnc(Cl)c3)C2)cc1 [Example 352, (E)-N-((2-chloropyridin-4-yl)methyl)-2-(3-(4-cyanophenyl)allyl)-9-(trifluoromethoxy)-1,2,3,4-tetrahydro-5H-pyrido[4,3-b]indole-5-carboxamide] | 33 µM | 5.7 µM
O=C(NCc1ccnc(Cl)c1)n1c2c(c3c(C(F)(F)F)cccc31)CN(C/C=C/c1ccc(Cl)cc1)CC2 [Example 157, (E)-2-(3-(4-chlorophenyl)allyl)-N-((2-chloropyridin-4-yl)methyl)-9-(trifluoromethyl)-1,2,3,4-tetrahydro-5H-pyrido[4,3-b]indole-5-carboxamide] | 3.8 µM | 11.9 µM
CS(=O)(=O)c1ccc2c(c1)c1c(n2C(=O)NCc2ccnc(Cl)c2)CCN(C/C=C/c2ccc(Cl)c(Cl)c2)C1 [Example 458, (E)-N-((2-chloropyridin-4-yl)methyl)-2-(3-(3,4-dichlorophenyl)allyl)-8-(methylsulfonyl)-1,2,3,4-tetrahydro-5H-pyrido[4,3-b]indole-5-carboxamide] | 5.7 µM | 3.3 µM
O=C(NCc1ccnc(F)c1)n1c2c(c3cc(Cl)ccc31)CN(C/C=C/c1ccc(Cl)c(F)c1)CC2 [Example 254, (E)-8-chloro-2-(3-(4-chloro-3-fluorophenyl)allyl)-N-((2-fluoropyridin-4-yl)methyl)-1,2,3,4-tetrahydro-5H-pyrido[4,3-b]indole-5-carboxamide] | 3.3 µM | 100 µM
